Data set [1] is described as follows: Stability to light and air at ambient temperature. The class given is physicochemical.
The conditions of data set [2]: air; cited from earlier work.

The source of these data is patent US20110171300A1, “DELTA 9 TETRAHYDROCANNABINOL DERIVATIVES” ([…] LIMITED, priority 2007, published 2011).

Take `CCCCCc1cc2c(c(OS(=O)(=O)C[C@]34CCC(CC3=O)C4(C)C)c1)[C@@H]1C=C(C)CC[C@H]1C(C)(C)O2` [Example 1, Δ9-THC (1S)-(+)-Camphorsulfonate]: in data set [1], the Stability entry is “Stable to light and air at ambient temperature”. The same measure, in the same setting: for `CCCCCc1cc2c(c(OS(=O)(=O)c3cccs3)c1)[C@@H]1C=C(C)CC[C@H]1C(C)(C)O2` [Example 2, Δ9-THC 2-thiophene sulfonate] the value was “Stable to light and air at ambient temperature”. As for `CCCCCc1cc2c(c(OS(=O)(=O)CCC)c1)[C@@H]1C=C(C)CC[C@H]1C(C)(C)O2` [Example 3, Δ9-THC n-propyl sulfonate], the Stability entry in data set [1] is “Stable to light and air at ambient temperature”. Same read-out and setting: for `CCCCCc1cc2c(c(OS(=O)(=O)CCCCl)c1)[C@@H]1C=C(C)CC[C@H]1C(C)(C)O2` [Example 4, Δ9-THC 3-chloropropyl sulfonate] the value was “Stable to light and air at ambient temperature”. Take `CCCCCc1cc(O)c2c(c1)OC(C)(C)[C@@H]1CCC(C)=C[C@@H]21` [Δ9-THC, Δ9-tetrahydrocannabinol]: the “Stability at room temperature” value in data set [2] is reported as “relatively unstable”.
